What was measured:
[1] = tested on: Phytophthora infestans; type: in vivo, Phytophthora infestans on tomato; conditions: hydrazone 50 ppm with 50 μM CuCl2.2H2O, applied 24 h before inoculation; assessed 7 days after inoculation; tomato late blight
[2] = tested on: Leptosphaeria nodorum (LEPTNO); assay: In vitro fungitoxicity of hydrazones with and without copper towards Leptosphaeria nodorum (Example 26); type: cell-based; conditions: test compound Concn. 0.05 μg/mL, 72 h at 25° C.; for inhibition of growth at 0.05 µg/mL: Parastagonospora nodorum, 72 h, copper-minus medium, read-out: LEPTNO % Inhn. Minus Copper Observed; for LEPTNO % Inhn. Plus Copper Observed: copper-plus medium (CuCl2 10 μM)

## C/C(=N\NC(=O)c1cccc(Cl)c1)c1cc(C)ccc1O [Example 316]
[1]
  TLB % Control: 14.0%
other
  melting point: 231 to 241 °C
[2]
  inhibition of growth at 0.05 µg/mL: 4.5%
  LEPTNO % Inhn. Plus Copper Observed: 97.1%

## C/C(=N\NC(=O)c1ccc(Cl)cc1)c1cc(C)ccc1O [Example 317]
[1]
  TLB % Control: 24.0%
other
  melting point: 203 to 210 °C
[2]
  inhibition of growth at 0.05 µg/mL: 16.3%
  LEPTNO % Inhn. Plus Copper Observed: 97.9%

## O=C(N/N=C/c1cc(Cl)c(C(F)(F)F)cc1O)c1ccccc1 [Example 318]
[1]
  TLB % Control: 71.2%
other
  melting point: 242 to 243 °C
[2]
  inhibition of growth at 0.05 µg/mL: 3.1%
  LEPTNO % Inhn. Plus Copper Observed: 97.3%

## O=C(N/N=C/c1c(C(F)(F)F)ccc(Cl)c1O)c1ccccc1 [Example 319]
[1]
  TLB % Control: 78.0%
other
  melting point: 216 to 218 °C
[2]
  inhibition of growth at 0.05 µg/mL: 18.1%
  LEPTNO % Inhn. Plus Copper Observed: 96.6%

## Cc1cccc(C(=O)N/N=C/c2cc(C(F)(F)F)cc(Cl)c2O)c1 [Example 321]
[1]
  TLB % Control: 100.0%
other
  melting point: 204 to 206 °C
[2]
  inhibition of growth at 0.05 µg/mL: 11.7%
  LEPTNO % Inhn. Plus Copper Observed: 96.6%

## Cc1ccc(C(=O)N/N=C/c2cc(C(F)(F)F)cc(Cl)c2O)cc1 [Example 322]
[1]
  TLB % Control: 95.0%
other
  melting point: 269 to 271 °C
[2]
  inhibition of growth at 0.05 µg/mL: 20.9%
  LEPTNO % Inhn. Plus Copper Observed: 97.9%

## O=C(N/N=C/c1cc(C(F)(F)F)cc(Cl)c1O)c1cccc(F)c1 [Example 323]
[1]
  TLB % Control: 100.0%
other
  melting point: 210 to 212 °C
[2]
  inhibition of growth at 0.05 µg/mL: 16.1%
  LEPTNO % Inhn. Plus Copper Observed: 98.1%

## O=C(N/N=C/c1cc(C(F)(F)F)cc(Cl)c1O)c1ccc(F)cc1 [Example 324]
[1]
  TLB % Control: 98.0%
other
  melting point: 200 to 202 °C
[2]
  inhibition of growth at 0.05 µg/mL: 2.3%
  LEPTNO % Inhn. Plus Copper Observed: 96.3%

## O=C(N/N=C/c1cc(C(F)(F)F)cc(Cl)c1O)c1cccc(Cl)c1 [Example 325]
[1]
  TLB % Control: 100.0%
other
  melting point: 210 to 212 °C
[2]
  inhibition of growth at 0.05 µg/mL: 0%
  LEPTNO % Inhn. Plus Copper Observed: 95.7%

## O=C(N/N=C/c1cc(C(F)(F)F)cc(Cl)c1O)c1ccc(Cl)cc1 [Example 326]
[1]
  TLB % Control: 93.0%
other
  melting point: 208 to 210 °C
[2]
  inhibition of growth at 0.05 µg/mL: 6.9%
  LEPTNO % Inhn. Plus Copper Observed: 95.6%

## O=C(N/N=C/c1cc(C(F)(F)F)cc(Cl)c1O)c1cccc([N+](=O)[O-])c1 [Example 327]
[1]
  TLB % Control: 98.0%
other
  melting point: 237 to 238 °C
[2]
  inhibition of growth at 0.05 µg/mL: 1.2%
  LEPTNO % Inhn. Plus Copper Observed: 95.7%

## O=C(N/N=C/c1cc(C(F)(F)F)cc(Cl)c1O)c1ccc([N+](=O)[O-])cc1 [Example 328]
[1]
  TLB % Control: 99.0%
other
  melting point: 253 to 255 °C
[2]
  inhibition of growth at 0.05 µg/mL: 0%
  LEPTNO % Inhn. Plus Copper Observed: 95.1%

## O=C(N/N=C/c1cc(C(F)(F)F)cc(Cl)c1O)c1ccccc1C(F)(F)F [Example 330]
[1]
  TLB % Control: 99.0%
other
  melting point: 169 to 171 °C
[2]
  inhibition of growth at 0.05 µg/mL: 5.3%
  LEPTNO % Inhn. Plus Copper Observed: 92.9%

## Cc1ccc(C(=O)N/N=C/c2cc(C(F)(F)F)cc(Cl)c2O)c(O)c1 [Example 331]
[1]
  TLB % Control: 100.0%
other
  melting point: 255 to 257 °C
[2]
  inhibition of growth at 0.05 µg/mL: 22.8%
  LEPTNO % Inhn. Plus Copper Observed: 97.8%

## Cc1cccc(C(=O)N/N=C/c2cc(C(F)(F)F)cc(C(F)(F)F)c2O)c1 [Example 332]
[1]
  TLB % Control: 89.0%
other
  melting point: 210 to 213 °C
[2]
  inhibition of growth at 0.05 µg/mL: 2%
  LEPTNO % Inhn. Plus Copper Observed: 93.9%

## Cc1ccc(C(=O)N/N=C/c2cc(C(F)(F)F)cc(C(F)(F)F)c2O)cc1 [Example 333]
[1]
  TLB % Control: 85.0%
other
  melting point: 274 to 277 °C
[2]
  inhibition of growth at 0.05 µg/mL: 16.2%
  LEPTNO % Inhn. Plus Copper Observed: 93.2%

## O=C(N/N=C/c1cc(C(F)(F)F)cc(C(F)(F)F)c1O)c1cccc(F)c1 [Example 334]
[1]
  TLB % Control: 98.0%
other
  melting point: 240 to 242 °C
[2]
  inhibition of growth at 0.05 µg/mL: 10.9%
  LEPTNO % Inhn. Plus Copper Observed: 97.8%

## O=C(N/N=C/c1cc(C(F)(F)F)cc(C(F)(F)F)c1O)c1ccc(F)cc1 [Example 335]
[1]
  TLB % Control: 95.0%
other
  melting point: 226 to 228 °C
[2]
  inhibition of growth at 0.05 µg/mL: 10.2%
  LEPTNO % Inhn. Plus Copper Observed: 96.8%

## O=C(N/N=C/c1cc(C(F)(F)F)cc(C(F)(F)F)c1O)c1cccc(Cl)c1 [Example 336]
[1]
  TLB % Control: 98.0%
other
  melting point: 230 to 233 °C
[2]
  inhibition of growth at 0.05 µg/mL: 16.6%
  LEPTNO % Inhn. Plus Copper Observed: 97.8%

## O=C(N/N=C/c1cc(C(F)(F)F)cc(C(F)(F)F)c1O)c1cccc([N+](=O)[O-])c1 [Example 338]
[1]
  TLB % Control: 96.0%
other
  melting point: 256 to 258 °C
[2]
  inhibition of growth at 0.05 µg/mL: 9%
  LEPTNO % Inhn. Plus Copper Observed: 98.1%

Reference: patent US20120010075A1 (priority 2009, published 2012)
